Where two headings read alike, the source gives them in different places.
Legend:
[1] = tested on: HCT116 (human colorectal carcinoma) cells; experiment: Cell growth inhibition assay, HCT116; format: cell-based
Description: (§1) A population of cells (>1×10^6 cells/mL as determined with a hemocytometer) was diluted with an appropriate amount of Dulbecco-modified Eagle Medium (DMEM, Gibco) containing 10% fetal bovine serum (FBS, Gibco) to a final concentration of 30,000 cells/mL.
(§2) To each well of a 96-well plate (Corning Costar), 100 μL of the cell-media solution was added with a multichannel pipette. The cultures were incubated at 37° C. in an atmosphere of 5% CO2 and 95% humidified air for 24 hours. The test compounds were added to the plate as follows: test substances were diluted in DMSO to a concentration of 1 mM and 10-fold serial dilutions were performed on a separate 96-well plate. Fresh culture medium (100 μL) was added to each well of cells to constitute 200 μL of medium per well followed by 2 μL of each test agent. Compounds were tested in duplicate (n=2-8 times) at six concentrations between 0-1,000 nM or 0-10,000 nM. Following addition, cultures were incubated for an additional 72 hours.
(§3) The plates were incubated at 37° C. for either 5 minutes (L1210) or 15 minutes (HCT116 and HCT116/VM46).

[2] = tested on: HCT116/VM46 (vinblastine-resistant strain of HCT116, Pgp over-expression) cells; experiment: Cell growth inhibition assay, HCT116/VM46
Description: as §1, §2, §3

[3] = tested on: HCT116/VM46 (vinblastine-resistant strain of HCT116, Pgp over-expression) cells; conditions: read-out: IC50 (nM) HCT116/VM46; reported in Leggans et al., Org. Lett. 2012; cited from earlier work
[4] = tested on: L1210 (mouse lymphocytic leukemia) cells; conditions: reported in Leggans et al., Org. Lett. 2012; cited from earlier work
[5] = tested on: HCT116 (human colorectal carcinoma) cells; conditions: reported in Leggans et al., Org. Lett. 2012; cited from earlier work
[6] = tested on: L1210 (mouse lymphocytic leukemia) cells; experiment: Cell growth inhibition assay, L1210; format: cell-based; conditions: L1210 murine leukemia cell line; avg of 4-16 determinations
Description: as §1, §2, §3

LNCaP-FGC (Prostate) = experiment: 15-cell line panel: LNCaP-FGC; format: cell-based, human; conditions: independent laboratory panel
[7] = tested on: T47D (Breast, mutant p53); experiment: 15-cell line panel: T47D; format: cell-based, human; conditions: independent laboratory panel
[8] = tested on: MCF-7 (Breast, overexpression of her2/neu); experiment: 15-cell line panel: MCF-7; format: cell-based, human; conditions: independent laboratory panel; > = highest concentration tested
[9] = tested on: MDA-MB-468 (Breast, triple negative, amplified EGFR); experiment: 15-cell line panel: MDA-MB-468; format: cell-based, human; conditions: independent laboratory panel
[10] = tested on: HCC70 (Breast, overexpression of p53); experiment: 15-cell line panel: HCC70; format: cell-based, human; conditions: independent laboratory panel
NCI-H520 (Lung) = experiment: 15-cell line panel: NCI-H520; format: cell-based, human; conditions: independent laboratory panel
[11] = tested on: HCC1143 (Breast, triple negative); experiment: 15-cell line panel: HCC1143; format: cell-based, human; conditions: independent laboratory panel
[12] = tested on: SW403 (Colon, KRAS^G12V mutation); experiment: 15-cell line panel: SW403; format: cell-based, human; conditions: independent laboratory panel
[13] = tested on: AU565 (Breast, overexpression of her2/neu); experiment: 15-cell line panel, independent laboratory: AU565; format: cell-based, human
[14] = tested on: LS174T (Colon, high levels of MUC2 mRNA); experiment: 15-cell line panel: LS174T; format: cell-based, human; conditions: independent laboratory panel
[15] = tested on: KPL4 (Breast, overexpression of erbB2); experiment: 15-cell line panel: KPL4; format: cell-based, human; conditions: independent laboratory panel
[16] = tested on: PA-1 (Ovary, overexpression of AIB1); experiment: 15-cell line panel: PA-1; format: cell-based, human; conditions: independent laboratory panel
[17] = tested on: ZR-75-1 (Breast, overexpression of her2); experiment: 15-cell line panel: ZR-75-1; format: cell-based, human; conditions: independent laboratory panel
[18] = tested on: HCT116/VM46 (Colon, vinblastine resistant); experiment: 15-cell line panel: HCT116/VM46; format: cell-based, human; conditions: independent laboratory panel; for IC50: > = highest concentration tested
porcine tubulin = molecular target: T1, porcine tubulin (Sus scrofa, UniProt P02550+P02554); format: binding; conditions: for tubulin binding affinity compared with vinblastine: in words
T1 construct: purified porcine tubulin; purchased Cytoskeleton, Inc
T1 sequence (P02550 whole entry): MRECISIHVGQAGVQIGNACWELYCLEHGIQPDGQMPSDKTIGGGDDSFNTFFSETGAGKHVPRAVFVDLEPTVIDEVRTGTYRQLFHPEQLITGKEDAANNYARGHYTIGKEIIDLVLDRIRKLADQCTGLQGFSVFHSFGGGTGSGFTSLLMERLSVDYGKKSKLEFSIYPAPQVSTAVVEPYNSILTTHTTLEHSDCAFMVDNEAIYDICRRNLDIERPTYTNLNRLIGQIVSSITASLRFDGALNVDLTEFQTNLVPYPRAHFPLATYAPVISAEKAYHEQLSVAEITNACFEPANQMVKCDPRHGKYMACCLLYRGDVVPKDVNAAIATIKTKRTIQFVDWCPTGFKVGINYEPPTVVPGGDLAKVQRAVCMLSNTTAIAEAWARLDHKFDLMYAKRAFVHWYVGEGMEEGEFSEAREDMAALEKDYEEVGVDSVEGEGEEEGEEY
T1 sequence (P02554 whole entry): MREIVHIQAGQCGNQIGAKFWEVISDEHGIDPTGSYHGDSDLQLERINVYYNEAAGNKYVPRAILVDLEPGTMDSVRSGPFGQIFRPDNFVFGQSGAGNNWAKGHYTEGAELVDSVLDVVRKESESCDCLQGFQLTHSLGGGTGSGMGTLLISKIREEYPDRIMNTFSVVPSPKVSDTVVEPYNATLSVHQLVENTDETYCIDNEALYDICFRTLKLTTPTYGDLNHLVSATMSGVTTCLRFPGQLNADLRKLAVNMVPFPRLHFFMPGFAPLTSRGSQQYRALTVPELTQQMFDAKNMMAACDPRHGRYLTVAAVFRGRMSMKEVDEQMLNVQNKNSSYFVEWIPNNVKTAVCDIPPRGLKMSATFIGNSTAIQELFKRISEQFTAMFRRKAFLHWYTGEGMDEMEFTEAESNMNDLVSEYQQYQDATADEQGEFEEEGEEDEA
Excerpt: [Owellen et al., Biochem. Pharmacol. 1977 26:1213-1219.] […] Millipore Steriflip® filter units were used to wash the filter paper with buffer under mild suction.

HCT116 (Colon) = experiment: 15-cell line panel: HCT116; format: cell-based, human; conditions: independent laboratory panel
[19] = tested on: human tumor 15-cell line panel; experiment: Human tumor 15-cell line panel, whole panel (averages, ranges); format: cell-based; conditions: for average IC50 value in human tumor cell line panel: comparative average
[20] = HCT116 human colon cancer cell line, avg of 4-16 determinations, read-out: IC50 (nM) HCT116
[21] = read-out: IC50 (nM) HCT116/VM46, resistant human colon cancer cell line, Pgp over-expression
[22] = ligand vs [^3H]VBL (1:1), normalized to VLB + [^3H]VLB = 50.0%

In the case of CC[C@]1(NC(N)=O)C[C@@H]2CN(CCc3c([nH]c4ccccc34)[C@@](C(=O)OC)(c3cc4c(cc3OC)N(C)[C@H]3[C@@](O)(C(=O)OC)[C@H](OC(C)=O)[C@]5(CC)C=CCN6CC[C@]43[C@@H]65)C2)C1 [Compound 11, reference compound], the IC50 [1, 20] is given as 7.5 nM, the IC50 [2] is given as 4400 nM and the IC50 [3] is given as 4400 nM. The IC50 [4] was 40 nM, the IC50 [5] was 7.5 nM and the IC50 [6] was 40 nM.

With CC[C@]1(O)C[C@@H]2CN(CCc3c([nH]c4ccccc34)[C@@](C(=O)OC)(c3cc4c(cc3OC)N(C)[C@H]3[C@@](O)(C(=O)OC)[C@H](OC(C)=O)[C@]5(CC)C=CCN6CC[C@]43[C@@H]65)C2)C1 [Vinblastine (1), Vinblastine, reference compound] the IC50 (LNCaP-FGC (Prostate); read-out: IC50 (nM) LNCaP-FGC) was 5.1 nM, the IC50 [7] was 5 nM and the IC50 [8] was > 110 nM. The IC50 [2, 21] was 600 nM, the IC50 [9] was 4.6 nM and the IC50 [10] was 3.5 nM. For the same compound, the IC50 [3] was 600 nM, the IC50 (NCI-H520 (Lung)) was 4.5 nM and the IC50 [4] was 6 nM. For the same compound, the IC50 [11] was 3.8 nM, the IC50 [12] was 7.9 nM and the IC50 [13] was 4 nM. It also gave an IC50 [14] of 19.6 nM, an IC50 [15] of 2.9 nM and an IC50 [16] of 4.6 nM. The IC50 [17] was 8 nM, the IC50 [18] was > 110 nM and the “% ^3H-vinblastine remaining bound” value (porcine tubulin) was 50.0%. The IC50 [6] was 6 nM.

CCC1(NC(=O)N2CCc3ccccc3C2)CC2CN(CCc3c([nH]c4ccccc34)C(C(=O)OC)(c3cc4c(cc3OC)N(C)C3C(O)(C(=O)OC)C(OC(C)=O)C5(CC)C=CCN6CCC43C65)C2)C1 (centres unmarked) [Compound 57] showed an IC50 (LNCaP-FGC (Prostate); read-out: IC50 LNCaP-FGC) of 0.02 nM, an IC50 [1, 20] of 0.56 nM and an IC50 [7] of 0.55 nM. It also gave an IC50 (HCT116 (Colon)) of 0.26 nM, an IC50 [8] of 2.1 nM and an IC50 [2, 21] of 8.7 nM. For the same compound, the IC50 [9] was 0.12 nM, the IC50 [10] was 0.13 nM and the “average enhancement over the activity of vinblastine in panel” value [19] was 30 fold. The “average IC50 value in human tumor cell line panel” value [19] was 0.2 nM, the IC50 (NCI-H520 (Lung)) was 0.14 nM and the IC50 [11] was 0.16 nM. For the same compound, the IC50 [12] was 1.2 nM, the IC50 [13] was 0.13 nM and the IC50 [14] was 0.3 nM. It also gave an IC50 [15] of 0.06 nM, an IC50 [16] of 0.19 nM and an IC50 [17] of 0.52 nM. For the same compound, the IC50 [18] was 6.6 nM, the “tubulin binding affinity compared with vinblastine” value (porcine tubulin) was “higher affinity than vinblastine” and the IC50 [6] was 0.62 nM.

With CCC1(NC(=O)Nc2ccc(-c3ccccc3)cc2)C[C@H]2CN(CCc3c([nH]c4ccccc34)[C@@](C(=O)OC)(c3cc4c(cc3OC)N(C)[C@H]3C(O)(C(=O)OC)[C@H](OC(C)=O)[C@]5(CC)C=CCN6CC[C@]43[C@@H]65)C2)C1 (some centres unmarked) [Compound 35] the IC50 ([1]; Homo sapiens, HCT-116, read-out: IC50 (nM) HCT116) was 6.9 nM, the IC50 ([2]; Homo sapiens, HCT-116/VM46, read-out: IC50 (nM) HCT116/VM46) was 470 nM and the “tubulin binding affinity compared with vinblastine” value (porcine tubulin) was “affinity matching or even slightly exceeding that of vinblastine”. For the same compound, the “% ^3H-vinblastine remaining bound” value (porcine tubulin; [22]) was 48.5 ± 6.9%.

For CC[C@]1(NC(=O)N2Cc3ccccc3C2)C[C@@H]2CN(CCc3c([nH]c4ccccc34)[C@@](C(=O)OC)(c3cc4c(cc3OC)N(C)[C@H]3[C@@](O)(C(=O)OC)[C@H](OC(C)=O)[C@]5(CC)C=CCN6CC[C@]43[C@@H]65)C2)C1 [Compound 58], the IC50 (LNCaP-FGC (Prostate); read-out: IC50 (nM) LNCaP-FGC) was 0.24 nM, the IC50 [1, 20] was 0.6 nM and the IC50 [7] was 0.41 nM. For the same compound, the IC50 (HCT116 (Colon)) was 0.16 nM, the IC50 [8] was > 12.5 nM and the IC50 [2, 21] was 7.5 nM. The IC50 [9] was 0.39 nM, the IC50 [10] was 0.04 nM and the “average enhancement over the activity of vinblastine in panel” value [19] was 30 fold. The “average IC50 value in human tumor cell line panel” value [19] was 0.2 nM, the IC50 ([19]; range over cell lines, read-out: IC50 values across the panel) was 0.04 to 0.45 nM and the IC50 (NCI-H520 (Lung)) was 0.1 nM. The IC50 [11] was 0.09 nM, the IC50 [12] was 0.45 nM and the IC50 [13] was 0.11 nM. For the same compound, the IC50 [14] was 0.45 nM, the IC50 [15] was 0.04 nM and the IC50 [16] was 0.11 nM. For the same compound, the IC50 [17] was 0.45 nM, the “differential of HCT116/VM46 from sensitive HCT116 in panel” value [18] was 20 fold and the IC50 [18] was 3.5 nM. For the same compound, the “tubulin binding affinity compared with vinblastine” value (porcine tubulin) was “higher affinity than vinblastine”, the “% ^3H-vinblastine remaining bound” value (porcine tubulin; [22]) was 41.2% and the IC50 [6] was 0.51 nM.

With CCC1(NC(=O)N(C)C)CC2CN(CCc3c([nH]c4ccccc34)C(C(=O)OC)(c3cc4c(cc3OC)N(C)C3C(O)(C(=O)OC)C(OC(C)=O)C5(CC)C=CCN6CCC43C65)C2)C1 (centres unmarked) [Compound 39] the IC50 [1, 20] was 2.8 nM, the “fold more potent than vinblastine, HCT116” value ([1]; relative to vinblastine) was 3 fold and the “activity difference between sensitive HCT116 and vinblastine-resistant HCT116/VM46” value ([2]; HCT116/VM46 vs HCT116) was 10 fold. For the same compound, the IC50 [2, 21] was 80 nM, the “% ^3H-vinblastine remaining bound” value (porcine tubulin) was 45.1 ± 3.5% and the “tubulin binding affinity compared with vinblastine” value (porcine tubulin) was “slightly better affinity than vinblastine”. It also gave an IC50 [6] of 5.9 nM.

In the case of CC[C@]1(N)C[C@H]2CN(CCc3c([nH]c4ccccc34)[C@@](C(=O)OC)(c3cc4c(cc3OC)N(C)[C@H]3[C@@](O)(C(=O)OC)[C@H](OC(C)=O)[C@]5(CC)C=CCN6CC[C@]43[C@@H]65)C2)C1 [Compound 7, 20′-aminovinblastine], the IC50 [1, 20] is given as 600 nM, the IC50 [2, 21] is given as > 10000 nM and the IC50 [3] is given as > 10000 nM. For the same compound, the IC50 [4] was 640 nM and the IC50 [5] was 600 nM.
